Test results reported in US20260055061A1, “HALOPHTHALIMIDE COMPOUNDS AND METHODS OF USE AGAINST TBI, INFLAMMATORY DISORDER, AUTOIMMUNE DISORDER, NEURODEGENERATIVE DISEASE OR VIRAL INFECTION” (The United States of America, as represented by the …, priority 2022, published 2026).

Experiments:
Type in all cases: in vivo
chicken embryos = assay: Chick embryo teratogenicity
Protocol: Chick embryology and analysis: Chicken eggs were obtained from Henry Stewart & Co Ltd, Norfolk UK. All work with chicken embryos obeyed UK Home Office regulations and followed guidelines, standards and practices governed by the University of Aberdeen Ethics Committee (Scotland, UK). […] Embryos were incubated at 37° C. for the required time period to reach E2.5 and E4 (early and mid-developmental stages, respectively). Eggs were then opened and the embryonic membranes protecting the embryos were removed with forceps. Chicken embryos typically lie on one side, so the left side is directly against the yolk and the right side can be observed. Drug (TFBP) or Control (DMSO alone) solutions were applied in 100 μL aliquots over the middle of the embryo on its right side. Embryos were left at room temperature for 20 min before being replaced in a 37° C. incubator. Due to the limited diffusion of drugs when applied to the right side of an embryo, the right side is considered the ‘treatment’ side and the left (facing internally towards the yolk sack) is considered normal after treatment and can, thereby, act as an internal control.

IL-6 = assay: LPS model of inflammation in rats: IL-6 in plasma, cortex, hippocampus; conditions: 29.57 mg/kg i.p.; LPS rat model
Protocol: (§1) Four hours after LPS injection, animals were euthanized, and blood and brain tissue were collected and placed on wet ice. Plasma was quickly separated from blood by centrifuge at 10,000 g. 5 min, 4° C., and brain regions of cortex, hippocampus and the rest of brain were dissected into separate vials on wet ice, then stored at −80° C. Brain tissues were then sonicated in a TRIS based lysis buffer (Mesoscale Discovery) with 3× protease/phosphatase inhibitors (Halt™ Protease and Phosphatase Inhibitor Cocktail, Thermo Fisher Scientific), were then centrifuged at 10,000 g, 10 min, 4° C., and protein concentrations were measured by Bicinchoninic acid assay (BCA, Thermo Fisher Scientific). Rat plasma, cerebral cortical and hippocampal samples were then analyzed by multi-proinflammatory cytokines ELISA (V-PLEX Proinflammatory Panel 2 Rat Kit, Mesoscale Discovery), following the manufacturer's protocol. The processes and dosages of the experiment of drug treatment effects on LPS rat model was made on the basis of our previous studies.

KC/GRO (CXCL1) = assay: LPS model of inflammation in rats: KC/GRO (CXCL1); conditions: 29.57 mg/kg i.p.; LPS rat model
Protocol: as §1

[1] = 3.5 μM, chicken embryos age E4, N = 7
[2] = 7.0 μM, chicken embryos age E2.5, N = 6
[3] = 7.0 μM, chicken embryos age E4, N = 7
[4] = 14.0 μM, chicken embryos age E2.5, N = 6

SMILES | Abnormal embryos (chicken embryos; [1]) | Dead embryos (chicken embryos; [1]) | Normal embryos (chicken embryos; [1]) | Abnormal embryos (chicken embryos; [2]) | Dead embryos (chicken embryos; [2]) | Normal embryos (chicken embryos; [2]) | Abnormal embryos (chicken embryos; [3]) | Dead embryos (chicken embryos; [3]) | Normal embryos (chicken embryos; [3]) | Dead embryos (chicken embryos; [4]) | Normal embryos (chicken embryos; [4]) | developmental anomaly in chicken embryos (chicken embryos; 14.0 μM, a single embryo, eye on control side) | deaths of chicken embryos (chicken embryos; 14.0 μM, around 48-72 h after application) | effects on embryo development (chicken embryos; 3.5 and 7.0 μM) | tolerability in chicken embryos (chicken embryos; lower dose 3.5 μM, E2.5 and E4) | death rate in chicken embryos (chicken embryos; two higher doses 7.0 and 14.0 μM) | IL-6 in plasma, cortex, and hippocampus (IL-6) | KC/GRO in brain (KC/GRO (CXCL1))
CC1(C)[C@@H]2CC[C@@]1(C)[C@@H](N1C(=O)c3c(F)c(F)c(F)c(F)c3C1=O)C2 [Compound 14, 4,5,6,7-Tetrafluoro-2-((1R,2S,4R)-1,7,7-trimethylbicyclo[2.2.1]heptan-2-yl) isoindoline-1,3-dione] | 0 | 0 | 7 | 0 | 2 | 4 | 0 | 3 | 4 | 3 | 2 | micro-opthalmia of the eye | three deaths | No effects on embryo development | well tolerated | increasing death rate | – | –
Nc1ccc(F)c2c1C(=S)N(C1CCC(=S)NC1=O)C2=O (stereo not drawn) [Compound 30, 4-amino-7-fluoro-2-(2-oxo-6-thioxopiperidin-3-yl)-3-thioxoisoindolin-1-one] | – | – | – | – | – | – | – | – | – | – | – | – | – | – | – | – | significantly reduce | significantly reduce
